Results: paper PMC5538625, “Perception of root‐active CLE peptides requires CORYNE function in the phloem vasculature” (EMBO Reports, 2017)
Where no end group is shown, it is not given here.

Legend:
[1] = biological target: T1, PXY extracellular domain (30–647) (Arabidopsis thaliana, UniProt Q9FII5); test: ITC of purified PXY extracellular domain vs. CLE41/44; details: binding affinity (range), isolated PXY ectodomain; range joins own value (Fig EV1B) and ref 25
T1 construct: PXY/TDR (30–647); azurocidin signal peptide (N); made in house; host or cells: Spodoptera frugiperda Sf9 insect cells (baculovirus, secreted)
T1 sequence (Q9FII5 30-647): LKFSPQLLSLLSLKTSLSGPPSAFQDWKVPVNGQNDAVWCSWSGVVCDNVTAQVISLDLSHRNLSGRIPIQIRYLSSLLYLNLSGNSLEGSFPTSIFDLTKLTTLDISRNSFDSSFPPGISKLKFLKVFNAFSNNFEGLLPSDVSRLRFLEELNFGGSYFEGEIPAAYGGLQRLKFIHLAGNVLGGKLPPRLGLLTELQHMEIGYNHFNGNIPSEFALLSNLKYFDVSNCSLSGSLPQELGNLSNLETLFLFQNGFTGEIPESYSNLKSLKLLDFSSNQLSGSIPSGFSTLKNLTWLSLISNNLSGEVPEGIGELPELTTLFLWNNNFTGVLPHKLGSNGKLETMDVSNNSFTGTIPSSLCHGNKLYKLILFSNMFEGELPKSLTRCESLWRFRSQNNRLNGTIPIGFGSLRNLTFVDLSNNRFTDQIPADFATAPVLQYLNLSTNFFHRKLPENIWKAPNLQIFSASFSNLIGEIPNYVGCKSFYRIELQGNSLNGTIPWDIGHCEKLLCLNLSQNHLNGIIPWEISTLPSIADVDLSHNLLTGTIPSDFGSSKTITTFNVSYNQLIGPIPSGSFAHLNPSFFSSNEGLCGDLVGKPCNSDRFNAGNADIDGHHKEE

[2] = system: Arabidopsis Col-0 seedlings (primary root); test: Root growth assay, wild type (Col-0); format: in vivo, Arabidopsis thaliana; details: 50 nM peptide, 9-day-old seedlings, primary root length, n ≥ 12
Protocol: Plant tissue culture, plant transformation, and common molecular biology procedures such as genomic DNA isolation, genotyping, sequencing, and peptide or inhibitor treatments were performed according to standard procedures as previously described 9, 19, 44, 65.
All mutant and transgenic lines were in the Arabidopsis Columbia‐0 (Col‐0) background. The following previously described mutant alleles were used throughout: brx‐2, bam3‐2, brx‐2 bam3, clv2‐1, serk1‐1 and serk1‐3, serk2‐1, serk3‐1, serk4‐1, serk5‐1 9, 47, 59, 66, 67, 68. The crn loss‐of‐function mutant allele (crn‐10) carries a single nucleotide insertion in front of the 7th codon, which leads to a frameshift and three subsequent premature stop codons after amino acid 10 52.

[3] = system: crn seedlings expressing CRN-CITRINE under control of the BAM3 promoter; test: Root growth, BAM3::CRN-CITRINE in crn (protophloem-specific CRN); format: in vivo, Arabidopsis thaliana; details: 50 nM peptide, 7-day-old seedlings
Description: Figure 3 Protophloem‐specific CRN action in the root meristem • A Expression pattern of BAM3, CLV2, and CRN‐CITRINE fusion proteins (green fluorescence) under control of their native promoters (blue fluorescence: calcofluor white cell wall staining) (confocal microscopy). Asterisks mark developing protophloem sieve element strands. • B, C Expression pattern of CRN‐CITRINE fusion protein under control of the BAM3 promoter in Col‐0 (B) or crn (C) background. Arrowhead in (C) highlights plasma membrane‐localized CRN. • D Representative 7‐day‐old crn seedlings expressing CRN‐CITRINE fusion protein under control of the BAM3 promoter grown on mock or CLE45. • E Primary root length of 7‐day‐old seedlings of indicated genotypes, grown on mock or 50 nM of selected CLE peptides. Differences as compared to ^a: Col‐0 or ^b: crn are not statistically significant unless indicated (Student's t‐test); *P < 0.05; **P < 0.01; ***P < 0.001; mean ± s.e.m. • F Expression of nuclear localized, fluorescent VENUS protein under control of the CVP2 promoter (which specifically marks developing protophloem sieve elements), 24 h after transfer from standard media to 50 nM of selected CLE peptides. Arrowheads indicate the cells closest to the tip in which CVP2 expression was still detectable. […]

Row | Sequence | Kd [1] | impact on root growth [2] | sensitivity after protophloem-specific CRN expression in crn [3]
1 | HEVPSGPNPISN [CLE41/44] | 10 to 30 nM | – | –
2 | RKVPRGPDPIHN [CLE26, CLE26: …] | – | significant, reproducible impact on root growth | restored sensitivity
